# Experimental data taken from patent US20250138031A1, “IN VITRO MEASUREMENT OF THE LYSIS OF A FIBRIN CLOT” (DIAGNOSTICA STAGO, priority 2021, published 2025).
# Entries after “also recorded” stand apart in the source; their conditions may differ.
# B1: emicizumab: commercial bispecific antibody mimicking FVIII by forming a complex with activated Factor IX and Factor X (antibody, chains of the INN, looked up, V domains shown)
# VH: QVQLVQSGSELKKPGASVKVSCKASGYTFTDNNMDWVRQAPGQGLEWMGDINTRSGGSIYNEEFQDRVIMTVDKSTDTAYMELSSLRSEDTATYHCARRKSYGYYLDEWGEGTLVTVSS
# VL: DIQMTQSPSSLSASVGDRVTITCKASRNIERQLAWYQQKPGQAPELLIYQASRKESGVPDRFSGSRYGTDFTLTISSLQPEDIATYYCQQYSDPPLTFGGGTKVEIK
# VH2: QVQLVESGGGLVQPGGSLRLSCAASGFTFSYYDIQWVRQAPGKGLEWVSSISPSGQSTYYRREVKGRFTISRDNSKNTLYLQMNSLRAEDTAVYYCARRTGREYGGGWYFDYWGQGTLVTVSS
# VL2: B1 VL
# Legend:
# [1] = tested on: lysis of the fibrin clot in hemophilia-A plasma; assay: Coagulation-Lysis test in turbidimetry with intrinsic activators instead of FXIa; type: biochemical, human; conditions: all FVIII concentrations tested, 48 nM GEG, 290 nM silica, TF 0.5 pM
# Experimental: The intrinsic activators in Stago reagents are ethylene glycol gallate at 23 mg/L (STA-Cephascreen) and silica at 20 g/L (STA-PTT analyzer).
# As was done for the implementation of a viscoelastic method, turbidimetry tests were performed with a hemophilia-A patient from each group, overloaded with 0, 2, 20, 100% of Factor VIII (FVIII-Advate®). The coagulation reaction was initiated with ethylene glycol gallate (GEG) from 48 to 190 nM final test or with silica from 145 to 580 nM final test, without modifying the concentration of tissue factor which was kept at 0.5 pM final test for the two activators. These activators were added independently into the reagent under the same reference conditions as FXIa.
# The aim is to determine the maximum difference in tolerance observed in parameters DOD t1, DOD t2, and TL, between FXIa and the intrinsic activators.
# [2] = at 15 mg/kg; cited from earlier work
# [3] = tested on: lysis of the fibrin clot in hemophilia-A plasma; assay: Coagulation-Lysis test (turbidimetric, DOD t1 750 sec / t2 1400 sec) on hemophilia-A plasmas; type: biochemical, human
# Experimental: Dynamic measurement of the formation and degradation of the fibrin clot is carried out on a set of samples. The test, called the “Coagulation-Lysis” test, is a turbidimetric, automated, encompassing test for measuring the formation and lysis of the fibrin clot. For the analysis, the invention takes advantage of only the “lysis” part of the fibrin clot formation and lysis curve. The test is performed by mixing the plasma sample, undiluted, with an intermediate reagent containing a very low concentration of tissue factor (TF), phospholipids (PPL), plasminogen activator (tPA), and activator of the intrinsic pathway, preferably factor XIa (FXIa). After incubating the mixture, the calcium reagent triggers the generation of thrombin and the formation of the fibrin clot which quickly begins to be degraded by the tPA (tissue plasminogen activator).
# According to one embodiment, TF (tissue factor), PPL (phospholipids), FXIa, and tPA (tissue plasminogen activator) are mixed at the following concentrations: 0.5 pM, 4 μM, 100 PM and 0.13 μg/mL final test.
# The undiluted plasma sample, preferably 200 μL, is mixed with the intermediate reagent, preferably 50 μL.
# Next is a step of incubating the mixture at 37° C. then adding the calcium ion-based triggering reagent to the mixture (FIG. 1), preferably 50 μL in 102 mM final reagent (17 mM final test), to initiate the thrombin generation and fibrin clot formation (FIG. 1).
# Then, the change in optical density is read (FIG. 1) dynamically (every 2 seconds) at a single wavelength between 350 and 800 nm, preferably at 540 nm and preferably for a duration of 1986 seconds (33 minutes).
# In the context of this experimental section, the parameters or steps which were specifically used or carried out to obtain the presented results are as follows: • a. TF (tissue factor) and PPL (phospholipids) are mixed with an activator of the intrinsic pathway, FXIa, and tPA (tissue plasminogen activator), at the following concentrations: 0.5 pM, 4 μM, 100 pM, and 0.13 μg/mL final test. • b. The mixture is incubated at 37° C. then the calcium ion-based triggering reagent is added to the mixture, 50 μL in 102 mM final reagent (17 mM final test), to initiate formation of the fibrin clot. • c. The change in optical density is read dynamically (every 2 seconds) at a single wavelength, at 540 nm and for a duration of 1986 seconds (33 minutes). • d. The database is composed of all the deltas of the optical density (DOD) at the different measurement times and for each of the method parameters (Tmax; T09D—90% of the max DOD; TL—50% of the max DOD—max DOD is a measure of optical density). • e. […] This database is used as a training database which is trained on at least 70% of the overloaded samples selected randomly, and as a test database for the remaining overloaded samples (30%), then as a validation database for the patient samples.
# The classification group is determined using the two DOD (delta optical density) parameters. For the turbidimetric method used, the times are defined within the ranges of [700-900] sec for time t1 and [1100-1400] sec for time t2. Preferably, time t1 was defined at 750 sec and time t2 was defined at 1400 sec. More precisely, the results shown in the Figures were obtained with t1=750 sec and t2=1400 sec. These parameters were selected in accordance with the method for the optimal choice or verification of these parameters, explained in this description. […] The range for time t2 was defined in combination with the results obtained at time t1.
# As we did for the implementation of a viscoelastic method, we carried out turbidimetry tests where a hemophilia-A patient from each group is overloaded with different concentrations of therapeutic molecules of interest.
# We wanted to test this type of molecule (below and FIG. 24) at concentrations of 0, 3, 15, and 30 μg/mL (Nougier et al. 2020) compared to the reference FVIII treatment (Advate®) at 0, 2, 20, and 100%. […]
# [4] = tested on: inhibitor (antibodies directed against FIX); assay: Residual titer of FIX after neutralization by the inhibitor in hemophilia-B plasma; type: biochemical, human; conditions: 40% Rixubis®, 30 minutes of incubation at 37° C.
# From the text: For certain hemophilia patients, the presence of inhibitors justifies the use of emicizumab.
molecule,measurement,setting,value
"O=C(OCCO)c1cc(O)c(O)c(O)c1 [GEG, ethylene glycol gallate]","maximum deviation for parameters DOD t1, DOD t2 and TL compared to the reference method with FXIa",[1]; group 1,−9%
same,"maximum deviation for parameters DOD t1, DOD t2 and TL compared to the reference method with FXIa",[1]; group 2,+3%
same,"maximum deviation for parameters DOD t1, DOD t2 and TL compared to the reference method with FXIa",[1]; group 3,+8%
NC[C@H]1CC[C@H](C(=O)O)CC1 [tranexamic acid],plasma concentration,[2],2000 ng/mL
same,lysis kinetics of a fibrin clot,"[3]; TXA (1 μg/mL, FIG. 7) in addition to maintenance therapy / missing factor FVIII, listed as TXA",becomes slower; also recorded: reducing lysis
same,classification group after treatment adjustment,"[3]; group 3 patients (shortened lysis time), TXA added, FIG. 7",move these patients into group 2
same,DOD (delta optical density) at time t2 compared with DOD at time t1,[3]; plasma concentration of 5 μg/mL of tranexamic acid in the sample,identical
"FXIII: Factor XIII or Catridecacog (NovoThirteen® NovoNordisk), activated by thrombin, stabilizes the clot",DOD t2 parameter,"[3]; FXIII (NovoThirteen®) mainly in combination with FVIII, patients in the three groups",increases
same,resistance to lysis,"[3]; FXIII in combination with FVIII, patients from the three groups",increases the resistance to lysis
same,change of classification group,"[3]; hemophilia-A patient in group 3, 20% FVIII and 170% FXIII:Ag",moves from group 3 to group 2
Rixubis®: FIX molecule (Takeda) used as replacement molecule for hemophilia B,residual titer of FIX after neutralization,[4]; patient B14,1%
same,residual titer of FIX after neutralization,[4]; patient B15,21%
B1,classification of patient in group 2 versus group 3,[3]; at 3 μg/mL emicizumab,overlap in classification
same,change in the group of overloaded hemophiliacs,"[3]; emicizumab overload 0, 3, 15, 30 μg/mL",No change
same,change to DOD t1,"[3]; emicizumab overload 0, 3, 15, 30 μg/mL, regardless of the patient groups",little change
same,DOD t2,"[3]; groups 1 and 2, up to 15 μg/mL of emicizumab",increased
same,change in parameters DOD t1 and DOD t2,"[3]; patient in group 3, emicizumab overload",little change in parameters
same,resistance to lysis,"[3]; patients in groups 1 and 2, emicizumab overload",increasing the resistance to lysis
